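How tested: cells in 96-well plates exposed to compound for 48 hours at five concentrations. GI50 = concentration required for 50% inhibition of growth. TGI: concentration producing complete growth inhibition.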
Key:
Assay in all cases: NCI tumour cell line growth inhibition, 48 h; in the data active = GI50 below about 0.43 µM; inactive = the rest
786-0 renal = test system: 786-0 renal
A498 renal = test system: A498 renal
A549 NSCLC = test system: A549 NSCLC
ACHN renal = test system: ACHN renal
BT-549 breast = test system: BT-549 breast
CAKI-1 renal = test system: CAKI-1 renal
CCRF-CEM leukemia = test system: CCRF-CEM leukemia
COLO 205 colon = test system: COLO 205 colon
DU-145 prostate = test system: DU-145 prostate
EKVX NSCLC = test system: EKVX NSCLC
HCC-2998 colon = test system: HCC-2998 colon
HCT-116 colon = test system: HCT-116 colon
HCT-15 colon = test system: HCT-15 colon
HL-60(TB) leukemia = test system: HL-60(TB) leukemia
HOP-62 NSCLC = test system: HOP-62 NSCLC
HOP-92 NSCLC = test system: HOP-92 NSCLC
HS 578T breast = test system: HS 578T breast
HT29 colon = test system: HT29 colon
IGROV1 ovarian = test system: IGROV1 ovarian
KM12 colon = test system: KM12 colon
LOX IMVI melanoma = test system: LOX IMVI melanoma
M14 melanoma = test system: M14 melanoma
MALME-3M melanoma = test system: MALME-3M melanoma
MCF7 breast = test system: MCF7 breast
MDA-MB-231 breast = test system: MDA-MB-231 breast
MDA-MB-435 = test system: MDA-MB-435
MOLT-4 leukemia = test system: MOLT-4 leukemia
NCI-H226 lung = test system: NCI-H226 lung
NCI-H23 lung = test system: NCI-H23 lung
NCI-H460 lung = test system: NCI-H460 lung
NCI-H522 lung = test system: NCI-H522 lung
NCI/ADR-RES ovarian = test system: NCI/ADR-RES ovarian
OVCAR-3 ovarian = test system: OVCAR-3 ovarian
OVCAR-4 ovarian = test system: OVCAR-4 ovarian
OVCAR-5 ovarian = test system: OVCAR-5 ovarian
OVCAR-8 ovarian = test system: OVCAR-8 ovarian
PC-3 prostate = test system: PC-3 prostate
RPMI-8226 leukemia = test system: RPMI-8226 leukemia
RXF 393 renal = test system: RXF 393 renal
SF-268 CNS = test system: SF-268 CNS
SF-295 CNS = test system: SF-295 CNS
SF-539 CNS = test system: SF-539 CNS
SK-MEL-2 melanoma = test system: SK-MEL-2 melanoma
SK-MEL-28 melanoma = test system: SK-MEL-28 melanoma
SK-MEL-5 melanoma = test system: SK-MEL-5 melanoma
SK-OV-3 ovarian = test system: SK-OV-3 ovarian
SN12C renal = test system: SN12C renal
SNB-19 CNS = test system: SNB-19 CNS
SNB-75 CNS = test system: SNB-75 CNS
SR leukemia = test system: SR leukemia
SW-620 colon = test system: SW-620 colon
T-47D breast = test system: T-47D breast
TK-10 renal = test system: TK-10 renal
U251 CNS = test system: U251 CNS
UACC-257 melanoma = test system: UACC-257 melanoma
UACC-62 melanoma = test system: UACC-62 melanoma
K-562 leukemia = test system: K-562 leukemia
UO-31 renal = test system: UO-31 renal

CCCCNc1nc(NC2OCC(OC(C)=O)C(OC(C)=O)C2OC(C)=O)c(N=O)c(=O)n1C (centres undefined)
> 10 µM: TGI (786-0 renal) | TGI (A498 renal) | TGI (A549 NSCLC) | TGI (ACHN renal) | TGI (BT-549 breast) | TGI (CAKI-1 renal) | TGI (CCRF-CEM leukemia) | TGI (COLO 205 colon) | TGI (DU-145 prostate) | TGI (EKVX NSCLC) | TGI (HCC-2998 colon) | TGI (HCT-116 colon) | TGI (HCT-15 colon) | TGI (HL-60(TB) leukemia) | TGI (HOP-62 NSCLC) | TGI (HOP-92 NSCLC) | TGI (HS 578T breast) | TGI (HT29 colon) | TGI (IGROV1 ovarian) | TGI (KM12 colon) | TGI (LOX IMVI melanoma) | TGI (M14 melanoma) | TGI (MALME-3M melanoma) | TGI (MCF7 breast) | TGI (MDA-MB-231 breast) | TGI (MDA-MB-435) | TGI (MOLT-4 leukemia) | TGI (NCI-H226 lung) | TGI (NCI-H23 lung) | TGI (NCI-H460 lung) | TGI (NCI-H522 lung) | TGI (NCI/ADR-RES ovarian) | TGI (OVCAR-3 ovarian) | TGI (OVCAR-4 ovarian) | TGI (OVCAR-5 ovarian) | TGI (OVCAR-8 ovarian) | TGI (PC-3 prostate) | TGI (RPMI-8226 leukemia) | TGI (RXF 393 renal) | TGI (SF-268 CNS) | TGI (SF-295 CNS) | TGI (SF-539 CNS) | TGI (SK-MEL-2 melanoma) | TGI (SK-MEL-28 melanoma) | TGI (SK-MEL-5 melanoma) | TGI (SK-OV-3 ovarian) | TGI (SN12C renal) | TGI (SNB-19 CNS) | TGI (SNB-75 CNS) | TGI (SR leukemia) | TGI (SW-620 colon) | TGI (T-47D breast) | TGI (TK-10 renal) | TGI (U251 CNS) | TGI (UACC-257 melanoma) | TGI (UACC-62 melanoma)

O=Nc1c(-c2c(O)[nH]c3ncccc23)[nH]c2ccccc12
> 79 µM: TGI (RPMI-8226 leukemia)
active: GI50 (SR leukemia) 0.274 µM
inactive: GI50 (786-0 renal) 21.8 µM | GI50 (A498 renal) 1.93 µM | GI50 (A549 NSCLC) 5.71 µM | GI50 (ACHN renal) 2.58 µM | GI50 (BT-549 breast) 5.41 µM | GI50 (CAKI-1 renal) 1.9 µM | GI50 (CCRF-CEM leukemia) 5.07 µM | GI50 (COLO 205 colon) 28.4 µM | GI50 (DU-145 prostate) > 23.9 µM | GI50 (EKVX NSCLC) 1.32 µM | GI50 (HCC-2998 colon) > 24.4 µM | GI50 (HCT-116 colon) 6.12 µM | GI50 (HCT-15 colon) 3.92 µM | GI50 (HL-60(TB) leukemia) 7.58 µM | GI50 (HOP-62 NSCLC) > 100 µM | GI50 (HS 578T breast) 2.71 µM | GI50 (HT29 colon) > 94.2 µM | GI50 (IGROV1 ovarian) 1.72 µM | GI50 (KM12 colon) 1.32 µM | GI50 (LOX IMVI melanoma) 5.32 µM | GI50 (M14 melanoma) 10.8 µM | GI50 (MALME-3M melanoma) 8.83 µM | GI50 (MCF7 breast) 18.7 µM | GI50 (MDA-MB-231 breast) 16 µM | GI50 (MDA-MB-435) > 100 µM | GI50 (MOLT-4 leukemia) 3.4 µM | GI50 (NCI-H226 lung) 15.3 µM | GI50 (NCI-H23 lung) > 100 µM | GI50 (NCI-H460 lung) 7.25 µM | GI50 (NCI-H522 lung) > 53.6 µM | GI50 (NCI/ADR-RES ovarian) > 100 µM | GI50 (OVCAR-3 ovarian) > 100 µM | GI50 (OVCAR-4 ovarian) 9.1 µM | GI50 (OVCAR-5 ovarian) 96.9 µM | GI50 (OVCAR-8 ovarian) > 100 µM | GI50 (PC-3 prostate) > 26.1 µM | GI50 (RXF 393 renal) > 100 µM | GI50 (SF-268 CNS) > 100 µM | GI50 (SF-295 CNS) > 100 µM | GI50 (SF-539 CNS) > 100 µM | GI50 (SK-MEL-28 melanoma) > 57.3 µM | GI50 (SK-MEL-5 melanoma) 15 µM | GI50 (SN12C renal) 5.86 µM | GI50 (SNB-19 CNS) > 100 µM | GI50 (SNB-75 CNS) 2.56 µM | GI50 (SW-620 colon) 11.3 µM | GI50 (T-47D breast) 2.99 µM | GI50 (TK-10 renal) 5.52 µM | GI50 (U251 CNS) > 100 µM | GI50 (UACC-257 melanoma) > 100 µM | GI50 (UO-31 renal) 1.64 µM
> 100 µM: TGI (786-0 renal) | TGI (A498 renal) | TGI (A549 NSCLC) | TGI (ACHN renal) | TGI (BT-549 breast) | TGI (CAKI-1 renal) | TGI (CCRF-CEM leukemia) | TGI (COLO 205 colon) | TGI (DU-145 prostate) | TGI (EKVX NSCLC) | TGI (HCC-2998 colon) | TGI (HCT-116 colon) | TGI (HCT-15 colon) | TGI (HL-60(TB) leukemia) | TGI (HOP-62 NSCLC) | TGI (HOP-92 NSCLC) | TGI (HS 578T breast) | TGI (HT29 colon) | TGI (IGROV1 ovarian) | TGI (K-562 leukemia) | TGI (KM12 colon) | TGI (LOX IMVI melanoma) | TGI (M14 melanoma) | TGI (MCF7 breast) | TGI (MDA-MB-231 breast) | TGI (MDA-MB-435) | TGI (MOLT-4 leukemia) | TGI (NCI-H226 lung) | TGI (NCI-H23 lung) | TGI (NCI-H460 lung) | TGI (NCI-H522 lung) | TGI (NCI/ADR-RES ovarian) | TGI (OVCAR-3 ovarian) | TGI (OVCAR-4 ovarian) | TGI (OVCAR-5 ovarian) | TGI (OVCAR-8 ovarian) | TGI (PC-3 prostate) | TGI (RXF 393 renal) | TGI (SF-268 CNS) | TGI (SF-295 CNS) | TGI (SF-539 CNS) | TGI (SK-MEL-28 melanoma) | TGI (SK-MEL-5 melanoma) | TGI (SN12C renal) | TGI (SNB-19 CNS) | TGI (SNB-75 CNS) | TGI (SR leukemia) | TGI (SW-620 colon) | TGI (T-47D breast) | TGI (TK-10 renal) | TGI (U251 CNS) | TGI (UACC-257 melanoma) | TGI (UACC-62 melanoma) | TGI (UO-31 renal)
> 41.5 µM: TGI (MALME-3M melanoma)

From PubChem BioAssay (NCI)
